Experimental data from patent US7291601B1, “Arginine-rich anti-vascular endothelial growth factor peptides that inhibit growth and metastasis of human tumor cells by blocking angiogenesis” (Korea Greencross Corp., priority 1999, dated 2007).

Key:
VEGF [1] = molecular target: T1, VEGF (Homo sapiens, UniProt P15692); test: 125I-labeled VEGF association with peptides fixed on ELISA plate, competition; format: binding; details: determined from IC50: KD=IC50−[non-labeled Competitor]; fixed peptide 100 ng/well; read-out: dissociation constant (KD) between VEGF and peptide
T1 sequence (P15692 27-191 isoform P15692-4): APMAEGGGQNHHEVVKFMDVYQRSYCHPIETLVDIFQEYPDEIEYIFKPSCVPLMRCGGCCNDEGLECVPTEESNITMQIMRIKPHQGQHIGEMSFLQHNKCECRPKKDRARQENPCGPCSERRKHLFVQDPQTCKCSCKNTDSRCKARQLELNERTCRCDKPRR
Method: To verify the postulated mechanism in which the screened peptides might be associated directly with VEGF so as to inhibit VEGF from binding to its receptors present on the surface of vascular endothelial cells, the following experiments were conducted. Each of the hexa-peptides was fixed on a 96-well ELISA plate at a concentration of 100 ng/well in such a manner that a 20% acetic acid solution containing each peptide was dried in air. The plate was treated three times with a phosphate buffered saline containing 0.1% albumin for 3 min each time. A solution of ^125I-labeled VEGF in the same phosphate buffered saline was added to the plate at a concentration of 0.2 ng/well and incubated at 37° C. for 1 hour to associate the labeled VEGF with the peptides. To remove the […] remaining unassociated, the plate washed four times with the same phosphate buffered saline for 3 min per each time, followed by measuring radioactivity with the aid of a γ-counter. As for the non-specific binding, it was determined by incubation in the presence of either a mixture of the labeled VEGF and non-labeled VEGF or a mixture of the fixed peptide and unfixed peptide in a molar ratio of 1:100. This was set as a negative control.
With reference to FIG. 7, radioactivity measured from ^125I-labeled VEGF associated with fixed peptides is plotted versus molar ratios of a competitor, such as non-labeled VEGF or free peptides, to its counterpart. […] The dissociation constant (KD) between VEGF and each peptide was determined using the IC50) value according to the following formula (De Blasi, A. et al., Trends Pharmacol. Sci., 10, 227 (1989)). KD=IC50−[non-labeled Competitor]

[2] = tested on: VEGF-induced DNA synthesis of HUVEC; test: VEGF-induced DNA synthesis of HUVEC ([methyl-3H] thymidine); format: cell-based, human; details: FIG. 10a
Method: In a gelatin-coated 48-well plate (Nunc) HUVEC were cultured at a density of 10^4 cells/well at 37° C. for one day, followed by washing the cells three times with serum-free medium 199. After being added with culture media containing VEGF (10 ng/ml, R&D systems) and various concentrations of the screened peptides, the cells were cultured at 37° C. After 24 hours of culturing, the cells were added with [methyl-^3H] thymidine (0.5 μCi/well) and cultured for an additional one day. Before quantification of the radioactivity used for the DNA synthesis with the aid of a liquid scintillation counter, the cells were washed with PBS containing 0.1% albumin, treated with 0.4 N NaOH at room temperature for 20 min for cell lysis, and neutralized with 2 N HCl. In order to determine the toxicity of the peptides, HUVEC were examined as in above using excess peptide (100 μM) in the absence of VEGF.

[3] = tested on: HM7 (human colon carcinoma cell line); test: Growth of HM7 cancer cells in vitro (tetrazolium dye); format: cell-based; details: 5×10^3 cells/well
Source text: In order to conduct an experiment concerning the metastasis of cancer cells to the liver, cancerous cells were transplanted into the spleen. In this regard, after being anesthetized with diethyl ether, 4-week-old male mice (athymic nude mice, BALB/c/nu/nu, Charles River, Japan) underwent flank incision. […] Four weeks after the injection, the liver was excised from each mouse and measured for weight and the size and number of metastatic nodules formed. Each test group was composed of 6-7 mice. In a student's t-test, a p value less than 0.05 was regarded as being statistically significant. In the test using tetrazolium dye (cell titer 96 Non-radioactive Proliferation Assay Kit, Promega), each peptide was evaluated to have no influence on the growth of the cancer cells (5×10^3 cells/well), so that the possibility that the toxicity of the peptide themselves might inhibit the growth and metastasis of cancer cells could be excluded.

[4] = tested on: human fibro-sarcoma cells; test: Viability of human fibro-sarcoma cells (tetrazolium dye); format: cell-based; details: 3 days incubation, various concentrations
Method: The following experiment was carried out to determine whether peptides antagonistic to VEGF have direct influence on the growth of human fibro-sarcoma cells. After being cultured for one day in a 96-well plate (Nunc), the cancer cells were added with DMEM containing various concentrations of the screened peptides and incubated. To the cells remaining alive after 3 days of incubation, 20 μl of tetrazolium dye (Cell Titer 96 Non-Radioactive Proliferation assay kit, Promega) was added, followed by incubation at 37° C. for 4 hours. The formazan produced by the viable cells was dissolved in 0.2 ml of dimethyl sulfoxide (DMSO) quantified by the absorbance at 570 nm. The absorbance attributed to formazan is proportional to living cells.

VEGF [5] = molecular target: T1, VEGF; test: Inhibition of 125I-labeled VEGF binding to its receptors on HUVEC; details: for IC50: HUVEC, peptides at 1, 4, 10 and 20 μM/sequence (FIG. 5)
Method: Then, the cells were transferred to a medium (Medium 199/25 mM HEPES, pH 7.4/0.1% bovine serum albumin) containing 0.2 ng of ^125I-labeled VEGF and various concentrations of peptides or combinatorial peptide libraries and reacted at 4° C. for 3 hours. The cells were washed twice with the same medium and once with PBS containing 0.1% albumin to remove the labeled VEGF which still remained uncombined. Thereafter, to quantify the labeled VEGF which bound to receptors present on the surface of the vascular endothelial cells, the cells were treated with 0.5 ml of a lysis solution (20 mM Tris-HCl, pH 7.4/1% TritonX-100) for 20 min, followed by measuring the resulting lysate for radioactivity with the aid of a γ-counter.
The sequence of each peptide was indirectly decided through the analysis of amino acid compositions and its concentration was determined, after which 12 peptides were assayed for antagonism toward VEGF binding at various concentrations (1, 4, 10, and 20 μM/sequence).

[6] = tested on: HT1080 (human fibrosarcoma); test: Egg CAM assay, angiogenesis induced by VEGF-secreting cancer cells; format: in vivo; details: for effect on angiogenesis induced by VEGF secreted from human cancer cells: FIG. 12; for Angiogenic activity eggs/total eggs / Angiogenic activity(%): egg CAM, 10^5 HT1080 cells/egg with 0.1 μg peptide; for Angiogenic activity(%): (standard deviation)
Method: An experiment using egg CAM was carried out to confirm the inhibitory activity of the screened peptides against the angiogenesis induced by cancer cells, which secrete VEGF. Fertilized eggs were deprived of albumin and windows were formed on the eggs as in above. 10^5 cells of HT1080 (human fibrosarcoma) were mixed with 7.5 μg of Type I collagen (rat tail, Beckton Dickinson, USA) within a volume of 5 μl and dropped onto ¼ fraction pieces of Thermanox coverslips to give collagen sponges. After being covered with the collagen sponges, 10-day embryonic egg CAM was incubated at 37° C. for 3 days. Blood vessels induced by the cancer cells were observed and photographed as in above (see Table 6 and FIG. 12).

Compound | Kd (VEGF [1]) [µM] | inhibition of VEGF-induced growth of vascular endothelial cells [2] | influence on growth of the cancer cells / cytotoxicity to human colon carcinoma cells [3] | direct influence on growth / viability of human fibro-sarcoma cells ([4]; listed as SEQ ID NO: 1) | direct influence on growth / viability of human fibro-sarcoma cells ([4]; listed as Sequence 1) | IC50 (VEGF [5]) [µM] | inhibition of binding of labeled VEGF165 to its receptors (VEGF [5]; recombinant labeled VEGF165, FIG. 9) | effect on angiogenesis induced by VEGF secreted from human cancer cells [6] | Angiogenic activity eggs/total eggs [6] | Angiogenic activity(%) [6] | direct influence on growth / viability of human fibro-sarcoma cells ([4]; listed as SEQ ID NO: 2) | direct influence on growth / viability of human fibro-sarcoma cells ([4]; listed as Sequence 2) | direct influence on growth / viability of human fibro-sarcoma cells ([4]; listed as SEQ ID NO: 3) | direct influence on growth / viability of human fibro-sarcoma cells ([4]; listed as Sequence 3)
H-RRKRRR-NH2 [compound 8, NH2-Arg-Arg-Lys-Arg-Arg-Arg-CONH2] | 5 | inhibit the VEGF-induced growth of vascular endothelial cells in a dose-dependent pattern | damage neither | no direct influence on human fibro sarcoma cells | damage neither | 2 | inhibited | inhibitory effect | 8/22 | 36.0(8.5) % |  |  |  | 
H-RKKRKR-NH2 [compound 1, NH2-Arg-Lys-Lys-Arg-Lys-Arg-CONH2] | 2 | inhibit the VEGF-induced growth of vascular endothelial cells in a dose-dependent pattern | damage neither |  |  | 3.4 |  | inhibitory effect | 10/23 | 43.0(9.9) % | no direct influence on human fibro sarcoma cells | damage neither |  | 
N=C(N)NCCC[C@H](NC(=O)[C@H](CCCNC(=N)N)NC(=O)[C@H](CCCNC(=N)N)NC(=O)[C@H](CCCNC(=N)N)NC(=O)[C@H](CCCNC(=N)N)NC(=O)[C@@H](N)CCCNC(=N)N)C(N)=O [compound 11, NH2-Arg-Arg-Arg-Arg-Arg-Arg-CONH2] | 22 | inhibit the VEGF-induced growth of vascular endothelial cells in a dose-dependent pattern | damage neither |  |  | 3.8 |  | inhibitory effect | 10/24 | 41.0(7.1) % |  |  | no direct influence on human fibro sarcoma cells | damage neither
